Values quoted from earlier work as cited in patent US7786119B2, “Drug conjugates of ion channel modulating compounds” (Cardiome Pharma Corp., priority 2004, dated 2010).

Legend:
[1] = optically pure d-sotalol; SWORD study

| SMILES | risk of ventricular proarrhythmia (estimated) [%] | patients requiring cardioversion for refractory ventricular arrhythmias (in vivo) [%] | increased mortality compared to placebo [1] [%] |
| --- | --- | --- | --- |
| CCCCCCCN(CC)CCCC(O)c1ccc(NS(C)(=O)=O)cc1 (stereo not drawn) [ibutilide] | ~4.4 | ~1.7 | – |
| CC(C)NC[C@@H](O)c1ccc(NS(C)(=O)=O)cc1 [d-sotalol] | – | – | 65 |
